Results from ChEMBL document CHEMBL5442219.

Columns and labels:
Details in all cases: Compound concentration 10 µM
[1] = target: Beta-2 adrenergic receptor (Homo sapiens) (UniProt P07550)
[2] = target: Delta-type opioid receptor (Homo sapiens) (UniProt P41143)
[3] = target: T1, Alpha-2C adrenergic receptor (Homo sapiens) (UniProt P18825)
T1 sequence (whole entry): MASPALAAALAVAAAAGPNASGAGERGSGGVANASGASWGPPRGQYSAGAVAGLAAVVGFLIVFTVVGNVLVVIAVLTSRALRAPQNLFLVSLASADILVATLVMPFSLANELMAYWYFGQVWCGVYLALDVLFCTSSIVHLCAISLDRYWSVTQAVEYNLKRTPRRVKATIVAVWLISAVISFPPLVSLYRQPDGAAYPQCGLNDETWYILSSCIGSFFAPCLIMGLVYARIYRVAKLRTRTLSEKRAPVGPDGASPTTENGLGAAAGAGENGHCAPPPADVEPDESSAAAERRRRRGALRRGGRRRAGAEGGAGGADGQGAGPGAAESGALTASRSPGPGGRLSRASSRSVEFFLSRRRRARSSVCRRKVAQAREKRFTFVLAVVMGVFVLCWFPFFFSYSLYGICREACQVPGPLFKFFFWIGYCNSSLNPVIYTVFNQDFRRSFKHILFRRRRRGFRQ

[4] = target: T2, 5-hydroxytryptamine receptor 3A (Homo sapiens) (UniProt P46098)
T2 sequence (whole entry): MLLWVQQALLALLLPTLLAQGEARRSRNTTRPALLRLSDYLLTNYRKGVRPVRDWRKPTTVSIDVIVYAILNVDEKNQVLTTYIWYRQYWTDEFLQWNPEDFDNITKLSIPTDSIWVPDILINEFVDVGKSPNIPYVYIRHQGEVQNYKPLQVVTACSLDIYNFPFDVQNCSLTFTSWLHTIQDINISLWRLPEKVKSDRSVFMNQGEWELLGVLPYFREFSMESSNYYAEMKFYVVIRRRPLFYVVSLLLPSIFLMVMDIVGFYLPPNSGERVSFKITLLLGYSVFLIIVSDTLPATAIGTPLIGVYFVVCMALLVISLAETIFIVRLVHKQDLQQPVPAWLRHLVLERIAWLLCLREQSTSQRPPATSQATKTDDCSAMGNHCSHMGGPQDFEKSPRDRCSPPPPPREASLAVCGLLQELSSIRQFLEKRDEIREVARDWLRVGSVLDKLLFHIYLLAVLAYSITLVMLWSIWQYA

[5] = target: Sodium-dependent noradrenaline transporter (Homo sapiens) (UniProt P23975)
[6] = target: Translocator protein (Homo sapiens) (UniProt P30536)
[7] = target: Histamine H4 receptor (Homo sapiens) (UniProt Q9H3N8)
[8] = target: Muscarinic acetylcholine receptor M3 (Homo sapiens) (UniProt P20309)
[9] = target: T3, D(4) dopamine receptor (Homo sapiens) (UniProt P21917)
T3 sequence (whole entry): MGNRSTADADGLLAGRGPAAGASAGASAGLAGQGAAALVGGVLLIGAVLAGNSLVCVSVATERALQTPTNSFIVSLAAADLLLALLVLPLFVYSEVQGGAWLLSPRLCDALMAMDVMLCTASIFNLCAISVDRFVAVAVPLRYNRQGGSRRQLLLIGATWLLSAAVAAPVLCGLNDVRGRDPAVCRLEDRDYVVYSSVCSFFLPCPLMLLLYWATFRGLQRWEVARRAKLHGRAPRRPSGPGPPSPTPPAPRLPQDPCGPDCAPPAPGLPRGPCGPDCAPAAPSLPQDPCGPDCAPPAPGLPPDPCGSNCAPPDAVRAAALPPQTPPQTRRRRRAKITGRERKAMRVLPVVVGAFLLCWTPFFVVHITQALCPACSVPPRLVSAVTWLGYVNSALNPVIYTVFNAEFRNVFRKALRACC

[10] = target: Beta-1 adrenergic receptor (Homo sapiens) (UniProt P08588)
[11] = target: T4, Alpha-2B adrenergic receptor (Homo sapiens) (UniProt P18089)
T4 sequence (whole entry): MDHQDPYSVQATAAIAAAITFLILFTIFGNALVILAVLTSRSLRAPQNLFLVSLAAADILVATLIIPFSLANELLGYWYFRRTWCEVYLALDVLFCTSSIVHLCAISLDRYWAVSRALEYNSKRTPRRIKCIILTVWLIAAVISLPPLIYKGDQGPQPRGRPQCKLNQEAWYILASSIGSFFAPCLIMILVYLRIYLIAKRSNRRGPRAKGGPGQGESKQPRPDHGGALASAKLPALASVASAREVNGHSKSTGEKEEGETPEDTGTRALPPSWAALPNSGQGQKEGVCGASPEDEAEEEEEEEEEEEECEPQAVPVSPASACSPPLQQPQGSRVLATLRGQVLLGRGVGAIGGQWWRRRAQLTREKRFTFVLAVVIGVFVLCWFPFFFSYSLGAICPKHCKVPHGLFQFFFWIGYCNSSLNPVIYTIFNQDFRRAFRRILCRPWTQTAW

[12] = target: T5, Muscarinic acetylcholine receptor M5 (Homo sapiens) (UniProt P08912)
T5 sequence (whole entry): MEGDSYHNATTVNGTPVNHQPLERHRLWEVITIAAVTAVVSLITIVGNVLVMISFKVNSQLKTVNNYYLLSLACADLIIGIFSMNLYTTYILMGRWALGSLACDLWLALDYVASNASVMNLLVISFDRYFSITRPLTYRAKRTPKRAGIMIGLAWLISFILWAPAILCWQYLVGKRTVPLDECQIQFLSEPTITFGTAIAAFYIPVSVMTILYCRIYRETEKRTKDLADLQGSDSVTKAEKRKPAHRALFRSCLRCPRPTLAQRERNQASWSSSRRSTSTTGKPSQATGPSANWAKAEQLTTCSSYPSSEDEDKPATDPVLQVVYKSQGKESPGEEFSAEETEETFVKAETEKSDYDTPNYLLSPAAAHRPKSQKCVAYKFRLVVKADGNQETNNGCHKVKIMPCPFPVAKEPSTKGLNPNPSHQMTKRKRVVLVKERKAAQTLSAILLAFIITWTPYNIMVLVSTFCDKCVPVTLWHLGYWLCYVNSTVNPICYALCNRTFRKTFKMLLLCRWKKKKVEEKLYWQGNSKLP

Chain of Histamine H4 receptor (Homo sapiens) (Q9H3N8 whole entry): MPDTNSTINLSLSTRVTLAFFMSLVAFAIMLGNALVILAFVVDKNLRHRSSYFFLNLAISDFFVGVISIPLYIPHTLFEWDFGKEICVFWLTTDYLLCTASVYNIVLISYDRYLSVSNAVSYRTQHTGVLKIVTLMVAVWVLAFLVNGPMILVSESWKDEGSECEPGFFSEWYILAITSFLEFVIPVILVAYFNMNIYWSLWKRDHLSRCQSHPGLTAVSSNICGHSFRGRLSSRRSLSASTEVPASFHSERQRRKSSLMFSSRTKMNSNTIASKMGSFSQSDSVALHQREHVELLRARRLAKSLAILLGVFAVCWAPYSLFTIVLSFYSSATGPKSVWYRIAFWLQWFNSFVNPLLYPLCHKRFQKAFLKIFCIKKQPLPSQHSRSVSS
Chain of Beta-2 adrenergic receptor (Homo sapiens) (P07550 whole entry, looked up): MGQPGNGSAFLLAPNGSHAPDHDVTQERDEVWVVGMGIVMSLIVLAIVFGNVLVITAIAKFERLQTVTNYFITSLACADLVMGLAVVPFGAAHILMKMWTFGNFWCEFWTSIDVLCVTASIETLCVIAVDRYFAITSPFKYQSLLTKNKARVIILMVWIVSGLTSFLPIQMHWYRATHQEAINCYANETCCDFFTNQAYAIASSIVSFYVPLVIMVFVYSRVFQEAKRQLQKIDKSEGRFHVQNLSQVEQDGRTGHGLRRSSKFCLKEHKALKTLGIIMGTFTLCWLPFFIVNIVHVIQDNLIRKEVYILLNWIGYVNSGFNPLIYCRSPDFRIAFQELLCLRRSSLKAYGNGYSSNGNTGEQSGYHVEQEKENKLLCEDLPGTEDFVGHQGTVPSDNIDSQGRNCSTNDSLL
Chain of Beta-1 adrenergic receptor (Homo sapiens) (P08588 whole entry, looked up): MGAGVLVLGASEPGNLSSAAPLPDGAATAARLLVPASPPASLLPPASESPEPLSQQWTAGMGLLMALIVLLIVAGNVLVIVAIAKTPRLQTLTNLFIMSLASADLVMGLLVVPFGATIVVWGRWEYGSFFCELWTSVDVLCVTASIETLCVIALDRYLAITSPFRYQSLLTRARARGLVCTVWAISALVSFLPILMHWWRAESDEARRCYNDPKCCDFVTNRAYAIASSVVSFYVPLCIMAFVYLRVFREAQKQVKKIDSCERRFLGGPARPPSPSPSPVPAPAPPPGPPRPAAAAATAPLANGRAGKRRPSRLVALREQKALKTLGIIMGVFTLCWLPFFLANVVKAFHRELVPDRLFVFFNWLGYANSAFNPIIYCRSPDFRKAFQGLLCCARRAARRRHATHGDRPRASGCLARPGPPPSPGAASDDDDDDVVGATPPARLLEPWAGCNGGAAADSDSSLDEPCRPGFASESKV
Chain of Sodium-dependent noradrenaline transporter (Homo sapiens) (P23975 whole entry): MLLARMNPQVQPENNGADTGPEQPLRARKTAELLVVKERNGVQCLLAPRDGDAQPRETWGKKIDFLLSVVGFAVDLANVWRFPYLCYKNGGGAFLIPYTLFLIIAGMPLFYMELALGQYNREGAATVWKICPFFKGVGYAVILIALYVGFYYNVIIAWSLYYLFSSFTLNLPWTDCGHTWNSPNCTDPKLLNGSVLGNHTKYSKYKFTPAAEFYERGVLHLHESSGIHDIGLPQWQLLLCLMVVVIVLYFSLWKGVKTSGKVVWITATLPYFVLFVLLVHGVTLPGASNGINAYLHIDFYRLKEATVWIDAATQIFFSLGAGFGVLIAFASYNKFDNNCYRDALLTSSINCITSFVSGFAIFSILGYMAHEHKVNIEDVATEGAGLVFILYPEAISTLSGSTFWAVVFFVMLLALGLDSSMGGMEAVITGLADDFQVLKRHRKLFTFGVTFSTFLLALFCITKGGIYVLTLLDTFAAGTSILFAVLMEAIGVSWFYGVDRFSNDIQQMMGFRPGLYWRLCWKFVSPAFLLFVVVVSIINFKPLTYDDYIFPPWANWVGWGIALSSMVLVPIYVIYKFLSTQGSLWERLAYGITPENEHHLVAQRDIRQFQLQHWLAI
Chain of Translocator protein (Homo sapiens) (P30536 whole entry): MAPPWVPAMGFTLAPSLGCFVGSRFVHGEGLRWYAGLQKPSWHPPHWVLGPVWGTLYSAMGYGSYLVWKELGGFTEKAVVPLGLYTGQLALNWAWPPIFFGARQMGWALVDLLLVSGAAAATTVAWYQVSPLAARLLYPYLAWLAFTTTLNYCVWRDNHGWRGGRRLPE
Chain of Muscarinic acetylcholine receptor M3 (Homo sapiens) (P20309 whole entry, looked up): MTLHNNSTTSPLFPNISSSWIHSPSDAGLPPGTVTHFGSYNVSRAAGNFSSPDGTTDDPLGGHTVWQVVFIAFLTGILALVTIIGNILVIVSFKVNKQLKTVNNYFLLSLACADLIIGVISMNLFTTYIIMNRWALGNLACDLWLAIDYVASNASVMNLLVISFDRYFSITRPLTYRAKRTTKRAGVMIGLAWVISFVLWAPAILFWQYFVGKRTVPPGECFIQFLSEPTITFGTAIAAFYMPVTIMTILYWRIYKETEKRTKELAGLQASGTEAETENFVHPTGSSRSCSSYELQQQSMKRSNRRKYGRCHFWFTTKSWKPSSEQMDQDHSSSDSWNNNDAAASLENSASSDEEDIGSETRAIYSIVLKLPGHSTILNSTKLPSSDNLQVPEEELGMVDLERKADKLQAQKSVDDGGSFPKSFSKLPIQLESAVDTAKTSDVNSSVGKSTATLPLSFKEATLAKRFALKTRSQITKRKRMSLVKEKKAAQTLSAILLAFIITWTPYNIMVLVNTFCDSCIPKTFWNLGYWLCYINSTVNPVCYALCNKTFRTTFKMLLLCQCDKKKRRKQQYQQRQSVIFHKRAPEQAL
Chain of Delta-type opioid receptor (Homo sapiens) (P41143 whole entry): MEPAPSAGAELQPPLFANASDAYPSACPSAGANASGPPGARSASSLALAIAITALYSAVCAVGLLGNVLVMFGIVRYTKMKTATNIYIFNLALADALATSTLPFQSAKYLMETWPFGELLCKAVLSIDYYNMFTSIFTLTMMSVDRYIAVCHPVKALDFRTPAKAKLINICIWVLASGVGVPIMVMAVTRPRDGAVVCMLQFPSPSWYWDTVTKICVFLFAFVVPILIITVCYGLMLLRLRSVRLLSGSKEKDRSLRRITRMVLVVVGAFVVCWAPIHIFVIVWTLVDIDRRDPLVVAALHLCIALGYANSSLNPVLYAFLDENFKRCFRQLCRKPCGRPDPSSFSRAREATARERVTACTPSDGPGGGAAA

Row | Structure (SMILES) | inhibition [1] | inhibition [2] | inhibition [3] | inhibition [4] | inhibition [5] | inhibition [6] | inhibition [7] | inhibition [8] | inhibition [9] | inhibition [10] | inhibition [11] | inhibition [12]
1 | NCCc1cn(S(=O)(=O)c2c(Cl)nc3sccn23)c2ccccc12 | 39.8% | 6.57% | 42.5% | 79.2% | 84.1% | -4.24% | 11.2% | 25.2% | 38.7% | 44.4% | 47.2% | 0.78%
2 | Cc1cc(NC(=O)NCCN2CCC(O)(Cc3ccccc3)CC2)c2ccccc2n1 | 28.1% | 15.6% | 37.3% | 4.17% | 69.5% | 44.3% | 3.45% | 24.4% | 21.1% | 25.5% | 29.6% | 44%
3 | Cc1c(P(=S)(c2ccccc2)c2ccccc2)n2ccccc2[n+]1C/C=C/c1ccccc1 | 65.4% | 36.7% | 101% | 20.9% | 83.2% | 6.66% | 31% | 71% | 25.8% | 36.1% | 45.7% | 89%
4 | CC1CCN(CC[C@H]2CCCN2S(=O)(=O)c2cccc(O)c2)CC1 | -9.8% | 7.91% | 51.5% | -9.3% | 30.6% | -7.14% | 10.6% | 0.09% | 22.1% | 9.71% | 51% | 1.99%
5 | CN(C)C(=O)N[C@H]1CC[C@H](CCN2CCN(c3cccc(Cl)c3Cl)CC2)CC1 | 31.6% | 11.3% | 98% | 6.73% | 49.7% | 29% | 2.57% | 27.8% | 103% | 92.4% | 90.6% | 59.3%
6 | CN1CCN(c2ccc(Nc3c4ccccc4nc4ccccc34)cc2)CC1 | 81.7% | 5.07% | 105% | 32% | 84.7% | 6% | 15.5% | 43.4% | 13.3% | 0.45% | 66% | 42.3%
7 | C[N+]1(C)[C@@H]2C[C@@H](OC(=O)C(O)(c3cccs3)c3cccs3)C[C@H]1[C@@H]1O[C@@H]12 | 16.1% | -1.59% | -0.27% | 14.3% | -2.62% | 66.3% | -8.1% | 99.2% | 20% | 7.61% | 8.74% | 97.4%
8 | Cc1ccc(O)c([C@H](CCN(C(C)C)C(C)C)c2ccccc2)c1 | 19.5% | -8.98% | 14.9% | -0.33% | 29.7% | 13.8% | -9.16% | 99.8% | 35.3% | -3.65% | 36.7% | 0%
9 | CC(C)[C@H](CO)Nc1nc(Nc2cccc(Cl)c2)c2ncn(C(C)C)c2n1 | -7.15% | 5.89% | 28.4% | 25.4% | 54.1% | 76.5% | 11.2% | -0.08% | 62.7% | 29.9% | 28.1% | 21.1%
10 | N[C@H](C(=O)O)c1ccc(C(=O)O)c(C(=O)O)c1 | 6.53% | 13.1% | -9.35% | 1.09% | 54.5% | 13.8% | 15% | 4.31% | -8.24% | -5.64% | -4.38% | 14.1%
